# From patent US8231721B2, “Antifungal liquid formulations” (LANXESS Deutschland GmbH, priority 2008, dated 2012)
# Test: Solubility of IPBC in Rhodiasolv DIB and PEG 300 (HPLC of supernatant)
# Assay type: physicochemical
# Settings: room temperature, after-stirred 12 h, supernatant by HPLC
# Method: Solubility of IPBC in Rhodiasolv DIB and PEG 300
# The solvent was introduced as initial charge at room temperature, and IPBC was added until a sediment persisted. It was after-stirred for a further 12 h, the solid was centrifuged off and the remaining supernatant was analyzed by means of HPLC.
smiles,measurement,value
"CCCCNC(=O)OCC#CI [IPBC, 3-iodopropargyl butylcarbamate]",solubility of IPBC in Rhodiasolv DIB,36.1 % by weight
same,solubility of IPBC in polyethylene glycol 300,44.9 % by weight
